Assay results reported in US5877210A, “Phosphotyrosine phosphatase inhibitors or phosphotyrosine kinase activators for controlling cellular proliferation” (priority 1995, dated 1999).

Legend:
A2780/Tax22 = assay: In vitro cytotoxicity, XTT assay
Description: (§1) The vanadate compound pV(phen) was tested for in vitro cytotoxicity in a panel of human tumor cell lines. The cell lines used were a human colon carcinoma cell line, HCT116, and two drug-resistant sublines. The HCT116(VM46) subline was selected for resistance to VM-26 and expresses the multidrug resistant (MDR) phenotype including resistance to lipophilic anticancer drugs such as paclitaxel, VP-16, VM-26, doxorubicin, and vinblastine. This cell line overexpresses P-glycoprotein, a cell surface drug efflux pump, which limits accumulation of anticancer drugs such as the ones mentioned above. […] The compound pV(phen) was also evaluated in the ovarian carcinoma cell line A2780 and a paclitaxel resistant subline A2780-Tax22.
(§2) In the cytotoxicity assays, cells were plated and 24 hr later drugs were added and serially diluted. After 72 hr of continuous drug exposure, the tetrazolium dye XTT was added. A dehydrogenase enzyme in live cells reduces the XTT to a form that absorbs light at 450 nm which can be quantitated spectrophotometrically. The greater absorbance, the greater is the number of live cells. The results are expressed as a IC50 which is a drug concentration required to inhibit cell proliferation (i.e., absorbance at 450 nm) to 50% of that of untreated control cells.

A2780 = assay: In vitro cytotoxicity, XTT assay; conditions: Homo sapiens, A2780, 72 h, read-out: IC50 (cytotoxicity)
Description: as §1, §2

HCT116(VM)46 = assay: In vitro cytotoxicity, XTT assay
Description: as §1, §2

HCT116(VP)35 = assay: In vitro cytotoxicity, XTT assay
Description: as §1, §2

HCT116 = assay: In vitro cytotoxicity, XTT assay; conditions: Homo sapiens, HCT-116, 72 h, read-out: IC50 (cytotoxicity)
Description: as §1, §2

Ramos cells = assay: Anti-phosphotyrosine western blot of cell lysates; type: cell-based, human; conditions: FIG. 11; whole cell lysates
Ramos [1] = assay: Clonogenic assay in methylcellulose; type: cell-based, human; conditions: doses of 10 and 25 μM
Description: The selective cytotoxicity of BMLOV was examined in clonogenic assays. Cells were grown in methylcellulose media and the number of colonies formed after seven days of treatment with various doses of the drug were determined. The clonogenic assays were performed with six replicates for each treatment as described [F. M. Uckun et al., J. Exp. Med. 163:347-368 (1986); F. M. Uckun & J. A. Ledbetter, Proc. Natl. Acad. Sci. USA 85:8603-8607 (1988)). The data is given plus/minus the standard error of the mean.
For assays of cellular proliferation, cells were grown five days in the presence of the indicated concentrations of BMLOV, pulsed 6 hr with [^3 H]-thymidine (New England Nuclear, Boston, Mass.), and counted in a liquid scintillation counter. Human peripheral blood lymphocytes (PBL) from normal volunteers were isolated from lymphocyte separation medium (Litton Bionetics, Kensington, Md.) by density gradient centrifugation. Monocytes were depleted from PBL by two rounds of plastic absorption for 30 minutes at 37° C. B cells were enriched for by negative selection using complement plus monoclonal antibodies to CD2, CD3, CD4, and CD8 for complement depletion. Clonogenic assays of colony formation in methylcellulose medium were performed as previously described (F. M. Uckun et al. (1992), supra).

Ramos [2] = assay: Clonogenic assay in methylcellulose; type: cell-based, human; conditions: Ramos B cells
[3] = tested on: calf intestinal alkaline phosphatase; conditions: reported by Cortizo et al.; cited from earlier work
Ramos [4] = conditions: previous studies (Uckun et al. 1992); cited from earlier work

CC(=O)O[C@H]1C(=O)[C@@]2(C)[C@H]([C@H](OC(=O)c3ccccc3)[C@]3(O)C[C@H](OC(=O)[C@H](O)[C@@H](NC(=O)c4ccccc4)c4ccccc4)C(C)=C1C3(C)C)[C@]1(OC(C)=O)CO[C@@H]1C[C@@H]2O [Paclitaxel, reference compound]
IC50 (A2780/Tax22; Homo sapiens, A2780, 72 h, read-out: IC50 (cytotoxicity)): 75 nM | fold resistance relative to parental cell line (A2780/Tax22; vs A2780, 4320 min): 18 fold | IC50 (A2780): 4 nM | IC50 (HCT116(VM)46; Homo sapiens, HCT-116/VM46, 72 h, read-out: IC50 (cytotoxicity)): 226 nM | fold resistance relative to parental cell line (HCT116(VM)46; vs HCT116, 4320 min): 75 fold | IC50 (HCT116(VP)35; Homo sapiens, HCT-116, 72 h, read-out: IC50 (cytotoxicity)): 2 nM | fold resistance relative to parental cell line (HCT116(VP)35; vs HCT116, 4320 min): 0.7 fold | IC50 (HCT116): 3 nM

CC(=O)C=C(C)[O-].CC(=O)C=C(C)[O-].[Cu+2] [cupric acetylacetonate]
induction of cellular tyrosine phosphorylation by analogs (Ramos cells): induced tyrosine phosphorylation, but in a different pattern than for the vanadyl compounds | sensitivity in clonogenic assay, in words (Ramos [1]): sensitive to the compound | Colonies (Ramos [2]; 1 μM cupric acetylacetonate): 5749 | Colonies (Ramos [2]; 5 μM cupric acetylacetonate): 226 | Colonies (Ramos [2]; 10 μM cupric acetylacetonate): 127 | Colonies (Ramos [2]; 25 μM cupric acetylacetonate): 31

[Na+].[Na+].[Na+].[O]=[V]([O-])([O-])[O-] [sodium orthovanadate]
concentration strongly inhibiting calf intestinal alkaline phosphatase [3]: less than 20 μM | effect on Ramos cells in clonogenic assays (Ramos [4]): only gave slight effects

CC(=O)C=C([O-])c1ccccc1.CC(=O)C=C([O-])c1ccccc1.[O]=[V+2] [vanadyl 1-benzoyl acetonate]
induction of cellular tyrosine phosphorylation by analogs (Ramos cells): strongly induced cellular tyrosine phosphorylation

CC(=O)/C=C(/C)[O-].CC(=O)/C=C(/C)[O-].[O]=[V+2] [vanadyl acetylacetonate]
induction of cellular tyrosine phosphorylation by analogs (Ramos cells): strongly induced cellular tyrosine phosphorylation
